Data published in patent US11578056B2, “Solid forms comprising (S)-2-(2,6-dioxopiperidin-3-yl)-4-((2-fluoro-4-((3-morpholinoazetidin-1-yl)methyl)benzyl)amino)isoindoline-1,3-dione and salts thereof, and compositions comprising and methods of using the same” (Celgene Corporation, priority 2019, dated 2023).

Key:
Assay type in all cases: cell-based
[1] = test system: SU-DHL-5 cell line; assay: Hematological cell line viability/apoptosis flow cytometry assay; conditions: SU-DHL-5 (DLBCL); 120 h
Protocol: (§1) Cell Proliferation and Viability Assay Using Hematological Cell Lines: The following exemplary anti-proliferative assay uses exemplary hematological cell lines in the following. The in vitro growth inhibitory activity of Compound 1 described herein was evaluated using a 384-well flow cytometry assay.
(§2) The cell lines were plated in 384-well flat bottom plates and assessed with increasing concentrations of compound ranging from 0.00015 to 10 μM or dimethyl sulfoxide (DMSO) control. The final concentration of DMSO was 0.1% (v/v). Following the addition of Compound 1 or DMSO and incubation for 120 hours, cell number and cell death were analyzed by flow cytometry (Attune®, Thermo Fisher) using Annexin V and the live-cell impermeant DNA dye, DRAQ7. Phosphatidylserine translocates from the inner layer to the outer layer of the cell membrane early in apoptosis and Annexin V binds to the exposed phosphatidylserine found on the surface of an apoptotic cell. The vital dye DRAQ7 is excluded by intact live cells and only stains cells that have died as a result of apoptosis or necrosis.
(§3) Flow cytometry data analysis was then performed using the Flow Jo_v10 software to determine the number of viable cells (Annexin V and DRAQ7 double negative staining cells) and percentage of apoptotic cells (Annexin V positive cells) for each condition. The live cell count for every concentration was normalized to the DMSO control (considered as 100%) to calculate the percentage of viable cells remaining after treatment and graphed using GraphPad Prism 7.03. The IC50 (50% inhibitory concentration) and Emax (maximum efficacy achieved) values were then calculated by performing nonlinear regression curve fitting using log(inhibitor) vs. normalized response—variable slope analysis on GraphPad Prism 7.03. Area under the curve (AUC) was calculated by performing area under curve analysis on GraphPad Prism 7.03. Similarly, for apoptosis analysis, the percentage of apoptosis combining both “early” (Annexin V positive and DRAQ7 negative) and “late” apoptosis (Annexin V and DRAQ7 positive) cell gates relative to DMSO was graphed using GraphPad Prism 7.03. The AUC, EC50 (concentration of compound that produces half-maximal apoptosis response) and Ymax (maximal percentage of apoptosis achieved) values from apoptosis curves were calculated by performing area under curve analysis and nonlinear regression curve fitting using log(agonist) vs. normalized response—Variable slope analysis on GraphPad Prism 7.03.
(§4) Dose-response proliferation curves for the panel of hematological cell lines and non-linear curve-fit regression were used to determine IC50, AUC, and Emax for % viable cells (Emax for viability varies between 100 at low doses and 0 at high doses, which corresponds to inhibition of all viable cells), and dose-response apoptosis curves were used to determine the EC50, AUC, and Ymax for % apoptosis (Ymax for apoptosis varies from 0 at low doses and 100 at higher doses which corresponds to death of all cells). Tumor cells were exposed to serial dilutions (0.00015 to 10 μM) of Compound 1 or dimethyl sulfoxide (DMSO) control for 5 days. Viability and apoptosis for all cell lines was determined by Annexin V/7-aminoactinomycin D (7-AAD) flow cytometry.

[2] = test system: KARPAS-422 cell line; assay: as above; conditions: KARPAS-422 (DLBCL GCB); 120 h
Protocol: as §1, §2, §3, §4

[3] = test system: Karpas-299 cell line; assay: as above; conditions: Karpas-299 (TCL), 120 h
Protocol: as §1, §2, §3, §4

[4] = test system: Mino cell line; assay: as above; conditions: Mino (MCL); 120 h
Protocol: as §1, §2, §3, §4

[5] = test system: GDM-1 cell line; assay: as above; conditions: GDM-1 (AML); 120 h
Protocol: as §1, §2, §3, §4

[6] = test system: SU-DHL-6 cell line; assay: as above; conditions: SU-DHL-6 (DLBCL GCB); 120 h
Protocol: as §1, §2, §3, §4

[7] = test system: SK-MM-1 cell line; assay: as above; conditions: SK-MM-1 (MM, PCL), 120 h
Protocol: as §1, §2, §3, §4

[8] = test system: OPM-2 cell line; assay: as above; conditions: OPM-2 (MM), 120 h
Protocol: as §1, §2, §3, §4

[9] = test system: HT cell line; assay: as above; conditions: HT (DLBCL GCB); 120 h
Protocol: as §1, §2, §3, §4

[10] = test system: SU-DHL-1 cell line; assay: as above; conditions: SU-DHL-1 (DLBCL); 120 h
Protocol: as §1, §2, §3, §4

[11] = test system: SU-DHL-4 cell line; assay: as above; conditions: SU-DHL-4 (DLBCL GCB); 120 h
Protocol: as §1, §2, §3, §4

[12] = test system: JJN-3 cell line; assay: as above; conditions: JJN-3 (MM, PCL), 120 h
Protocol: as §1, §2, §3, §4

[13] = test system: CI cell line; assay: as above; conditions: CI (CLL), 120 h
Protocol: as §1, §2, §3, §4

[14] = test system: hematological cell lines; assay: Hematological cell line viability/apoptosis flow cytometry assay, whole panel; conditions: panel of hematological cell lines, 0.00015 to 10 μM, 5 days
Protocol: as §1
The cell lines were plated in 384-well flat bottom plates and assessed with increasing concentrations of compound ranging from 0.00015 to 10 μM or dimethyl sulfoxide (DMSO) control. The final concentration of DMSO was 0.1% (v/v). Following the addition of Compound 1 or DMSO and incubation for 120 hours, cell number and cell death were analyzed by flow cytometry (Attune®, Thermo Fisher) using Annexin V and the live-cell impermeant DNA dye, DRAQ7. […]
Flow cytometry data analysis was then performed using the Flow Jo_v10 software to determine the number of viable cells (Annexin V and DRAQ7 double negative staining cells) and percentage of apoptotic cells (Annexin V positive cells) for each condition. […] The IC50 (50% inhibitory concentration) and Emax (maximum efficacy achieved) values were then calculated by performing nonlinear regression curve fitting using log(inhibitor) vs. normalized response—variable slope analysis on GraphPad Prism 7.03. Area under the curve (AUC) was calculated by performing area under curve analysis on GraphPad Prism 7.03. […]

[15] = Homo sapiens, read-out: % Viable Cells IC50

O=C1CC[C@H](N2C(=O)c3cccc(NCc4ccc(CN5CC(N6CCOCC6)C5)cc4F)c3C2=O)C(=O)N1 [Compound 1, (S)-2-(2,6-dioxopiperidin-3-yl)-4-((2-fluoro-4-((3-morpholinoazetidin-1-yl)methyl)benzyl)amino)isoindoline-1,3-dione]
% Viable Cells AUC [1]: 1.873
% Viable Cells Emax [1]: 0.1398%
Apoptosis AUC [1]: 934.1
Apoptosis Ymax [1]: 95.23%
% Viable Cells AUC [2]: 19.97
% Viable Cells Emax [2]: 0.8721%
Apoptosis AUC [2]: 911.9
Apoptosis Ymax [2]: 93.99%
EC50 ([3]; Homo sapiens): 168000 nM
IC50 [3, 15]: 12 nM
% Viable Cells AUC [3]: 283.7
% Viable Cells Emax [3]: 8.43%
Apoptosis AUC [3]: 14.51
Apoptosis Ymax [3]: 8.0%
% Viable Cells AUC [4]: 62.67
% Viable Cells Emax [4]: 5.638%
Apoptosis AUC [4]: 968.2
Apoptosis Ymax [4]: 97.04%
% Viable Cells AUC [5]: 1455
% Viable Cells Emax [5]: 388.4%
Apoptosis AUC [5]: 696.9
Apoptosis Ymax [5]: 265%
% Viable Cells AUC [6]: 19.94
% Viable Cells Emax [6]: 0.2469%
Apoptosis AUC [6]: 920.7
Apoptosis Ymax [6]: 95.92%
% Viable Cells AUC [7]: 202.2
% Viable Cells Emax [7]: 3%
Apoptosis AUC [7]: 90.99
Apoptosis Ymax [7]: 44.5%
EC50 [7]: 86400 nM
IC50 ([7]; read-out: % Viable Cells IC50): 0.8 nM
EC50 ([8]; Homo sapiens): 1320 nM
IC50 [8, 15]: 0.3 nM
% Viable Cells AUC [8]: 210.5
% Viable Cells Emax [8]: 6.65%
Apoptosis AUC [8]: 212.6
Apoptosis Ymax [8]: 63.00%
% Viable Cells AUC [9]: 396.7
% Viable Cells Emax [9]: 30.39%
Apoptosis AUC [9]: 225.3
Apoptosis Ymax [9]: 25.16%
% Viable Cells AUC [10]: 31.14
% Viable Cells Emax [10]: 2.485%
Apoptosis AUC [10]: 690.1
Apoptosis Ymax [10]: 73.83%
% Viable Cells AUC [11]: 296.2
% Viable Cells Emax [11]: 23.44%
Apoptosis AUC [11]: 209
Apoptosis Ymax [11]: 25.33%
IC50 [12, 15]: 0.4 nM
% Viable Cells AUC [12]: 278.2
% Viable Cells Emax [12]: 21.6%
Apoptosis AUC [12]: 57.97
Apoptosis Ymax [12]: 26%
% Viable Cells AUC [13]: 603.9
% Viable Cells Emax [13]: 53.58%
Apoptosis AUC [13]: 123.2
Apoptosis Ymax [13]: 13.01%
EC50 [13]: 22.9 nM
IC50 ([13]; read-out: % Viable Cells IC50): 9700 nM
antiproliferative activity and/or apoptotic effects [14]: antiproliferative activity and/or apoptotic effects in almost all hematological cell lines tested
